Legend:
[1] = Stability of Form B to milling (ball mill, XRPD); type: physicochemical; conditions: no solvent, mill at 25 Hz, 3 x 2 mins; for Output Form (milling experiment): XRPD
Description: A ball mill was used to mimic the effects of grinding that would be experienced during formulation steps such as dry blending and wet granulation. Form B (50 mg) was added to a milling chamber with an agate milling ball. Using a Retsch MM200 mixer mill, the material was milled for 6-10 minutes at a frequency of 25 Hz. Periodically, the milling was stopped and powder that adhered to the milling chamber was scraped down. The resultant milled material was analysed using XRPD.

[2] = Stability of Form B to compression (die press, XRPD); type: physicochemical; conditions: compression @ 370 MPa for 24 hrs; for Output Form (compression experiment): XRPD
Description: A die press was used to mimic the uniaxial stress experienced during formulation steps such as tableting. Form B (50 mg) was added to a KBr pellet die and compressed overnight at ˜370 MPa using a hydraulic press. The resultant solid disc was removed from the press and immediately analysed by XRPD.

[3] = Stability of Form B to humidity stress (XRPD); type: physicochemical; conditions: 40° C./75% RH for 8 days
Description: Form B material was exposed to high humidity conditions to determine stability on storage. Approximately 20 mg of Form B material was added to a vial and placed unsealed into a sealed cabinet with a relative humidity of 75% (controlled by a super-saturated salt solution) and a temperature of 40° C. for 8 days. The resultant material was analysed by XRPD.

[4] = test system: mouse model of generalised seizure (tonic hind limb extensor convulsions); assay: Maximal electroshock seizure threshold (MEST) test in the mouse; conditions: for % change from vehicle (CC50) / CC50 +/- SEM: 30 min post dose
Description: The efficacy of compound 1 was tested in a mouse model of generalised seizure, the maximal electroshock seizure threshold (MEST) test.
The maximal electroshock seizure threshold (MEST) test is widely utilized preclinically to evaluate pro-or anti-convulsant properties of test compounds (Loscher et al., 1991).
In the MEST test the ability of a drug to alter the seizure threshold current required to induce hind limb tonic extensor convulsions is measured according to an “up and down” method of shock titration (Kimball et al., 1957). An increase in seizure threshold is indicative of anti-convulsant effect.
The ability of a test compound to alter the stimulus intensity, expressed as current (mA), required to induce the presence of tonic hind limb extensor convulsions, is assessed in the MEST.
Naïve mice were acclimatised to the procedure room in their home cages for up to 7 days, with food and water available ad libitum.
All animals were weighed at the beginning of the study and randomly assigned to treatment groups based on a mean distribution of body weight across groups.
The first animal within a treatment group was given a shock at the expected or estimated CC50 current. For subsequent animals, the current was lowered or raised depending on the convulsions outcome from the preceding animal, in intervals of 5 mA.
Data generated from each treatment group were used to calculate the CC50+SEM values for the treatment group.
Vehicle: (5% ethanol, 10% solutol, 85% Saline) was prepared as follows: 1 mL of ethanol, 2 mL of solutol were warmed to 60° C., in 17 mL of saline (1:2:17).
The test compound (compound 1) was administered at 2, 20 and 200 mg/kg (i.p.) in a 1:2:17 ethanol: solutol: 0.9% saline formulation.
The data for each treatment group were recorded as the number of +'s and 0's at each current level employed and this information is then used to calculate the CC50 value (current required for 50% of the animals to show seizure behaviour)±standard error.
Test compound effects were also calculated as percentage change in CC50 from the vehicle control group.
Significant difference between drug-treated animals and controls were assessed according to Litchfield and Wilcoxon (1949).

[5] = Retest of Form C after storage at ambient conditions; type: physicochemical; conditions: 6 days storage at ambient conditions

In the case of `C=C(C)[C@@H]1CCC(C)=C[C@H]1c1c(O)cc(-c2cnn(C)c2)cc1O` [Form B, (1′R,2′R)-5′-methyl-4-(1-methyl-1H-pyrazol-4-yl)-2′-(prop-1-en-2-yl)-1′,2′,3′,4′-tetrahydro-[1,1′-biphenyl]-2,6-diol], the “Result (milling experiment)” value [1] is reported as “solid”, the “Output Form (milling experiment)” value [1] is reported as “did not undergo a change in form” and the “Output Form (milling experiment)” value ([1]; listed as B) is reported as “B (disordered)”. For the same compound, the “Result (compression experiment)” value [2] was “solid”, the “Output Form (compression experiment)” value [2] was “stable to compression” and the “Output Form (compression experiment)” value ([2]; listed as B) was “B (slight disorder)”. For the same compound, the “Result (humidity stress experiment)” value [3] was “solid” and the “Output Form (humidity stress experiment)” value ([3]; XRPD) was “stable to storage”.
In the case of `CN1C(=O)CN=C(c2ccccc2)c2cc(Cl)ccc21` [Diazepam, diazepam, reference compound], the “% change from vehicle (CC50)” value ([4]; i.p., 2.5 mg/kg) is reported as 223%.
For `C=C(C)[C@@H]1CCC(C)=C[C@H]1c1c(O)cc(-c2cnn(C)c2)cc1O` [Compound 1, (1′R,2′R)-5′-methyl-4-(1-methyl-1H-pyrazol-4-yl)-2′-(prop-1-en-2-yl)-1′,2′,3′,4′-tetrahydro-[1,1′-biphenyl]-2,6-diol], the “% change from vehicle (CC50)” value ([4]; i.p., 2 mg/kg) was 27%, the “CC50 +/- SEM” value ([4]; i.p., 2 mg/kg) was 30.8 ± 1.0 mA and the “% change from vehicle (CC50)” value ([4]; i.p., 20 mg/kg) was 116%. The “CC50 +/- SEM” value ([4]; i.p., 20 mg/kg) was 52.5 ± 1.3 mA, the “% change from vehicle (CC50)” value ([4]; i.p., 200 mg/kg) was 712% and the “CC50 +/- SEM” value ([4]; i.p., 200 mg/kg) was 197.5 ± 20.4 mA. For the same compound, the “Effect on MEST (in words)” value ([4]; i.p., 2, 20 and 200 mg/kg) was “dose-related increase in MEST” and the “CC50 value compared to vehicle (in words)” value ([4]; i.p., 30 minutes before the test, all three doses (2, 20, 200 mg/kg)) was “statistically significant”.
For `C=C(C)[C@@H]1CCC(C)=C[C@H]1c1c(O)cc(-c2cnn(C)c2)cc1O` [Form C, (1′R,2′R)-5′-methyl-4-(1-methyl-1H-pyrazol-4-yl)-2′-(prop-1-en-2-yl)-1′,2′,3′,4′-tetrahydro-[1,1′-biphenyl]-2,6-diol], the Form after storage [5] was “converted to a Form A”.
